Results published in US6303591A, “21-hydroxy-6,19-oxidoprogesterone (21OH-6OP) and its use as medicament for treating excess of glucocorticoids” (Applied Research Systems ARS Holding NV, priority 1997, dated 2001).
Entries after “also recorded” stand apart in the source; their conditions may differ.

Target: T1, uterus PR (progesterone receptor) (Rattus norvegicus, UniProt Q63449)
T1 sequence (Q63449 1-923): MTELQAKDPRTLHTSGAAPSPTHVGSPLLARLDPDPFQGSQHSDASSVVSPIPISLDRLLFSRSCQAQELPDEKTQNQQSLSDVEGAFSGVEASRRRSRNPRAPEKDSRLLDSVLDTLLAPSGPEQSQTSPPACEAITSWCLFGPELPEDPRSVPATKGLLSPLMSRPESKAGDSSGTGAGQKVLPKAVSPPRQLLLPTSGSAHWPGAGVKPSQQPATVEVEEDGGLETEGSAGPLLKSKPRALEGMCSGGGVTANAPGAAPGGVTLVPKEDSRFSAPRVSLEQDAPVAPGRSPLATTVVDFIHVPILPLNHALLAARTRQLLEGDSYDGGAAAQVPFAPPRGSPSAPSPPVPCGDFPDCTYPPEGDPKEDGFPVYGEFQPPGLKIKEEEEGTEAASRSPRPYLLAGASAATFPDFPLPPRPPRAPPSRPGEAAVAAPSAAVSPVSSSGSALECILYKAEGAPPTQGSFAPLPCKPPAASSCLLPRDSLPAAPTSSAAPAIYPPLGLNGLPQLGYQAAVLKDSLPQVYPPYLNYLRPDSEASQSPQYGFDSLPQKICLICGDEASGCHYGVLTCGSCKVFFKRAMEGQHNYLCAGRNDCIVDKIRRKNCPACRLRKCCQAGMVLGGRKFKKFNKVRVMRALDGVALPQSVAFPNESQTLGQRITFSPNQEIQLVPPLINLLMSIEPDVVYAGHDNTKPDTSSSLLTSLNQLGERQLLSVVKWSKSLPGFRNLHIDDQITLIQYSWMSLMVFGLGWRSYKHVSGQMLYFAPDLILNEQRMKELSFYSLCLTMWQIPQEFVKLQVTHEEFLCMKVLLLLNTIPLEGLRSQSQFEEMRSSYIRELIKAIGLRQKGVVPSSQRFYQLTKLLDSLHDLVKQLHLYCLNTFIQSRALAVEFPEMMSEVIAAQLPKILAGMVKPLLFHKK
Assay: (^3 H)-P4 binding to uterus cytosols (PR)
Settings: uterus cytosol, 12 h at 0° C., 1 μM cortisol
Method: Binding Assay: Adrenalectomized male Sprague-Dawley rats were bled to death by heart puncture. Cold 0.9% NaCI was injected profusely through the aorta until organs were completely blanched. Thymuses were used as a source of GR and kidneys as a source of MR. Homogenization and incubation conditions were performed as previously described, (14) and (15), respectively. Briefly, homogenates performed in cold TEGM buffer at pH 7.4 (0.1 M Tris-HCl, 10 mM EDTA, 10 mM α-mercaptoethanol, 20 mM Na2 MoO4, 25% glycerol, 0.1 mM PMSF, 2.0 TIU/ml aprotinin and 1 mg% Leupeptin) were centrifuged at 37,000 rev. for 30 min at 0° C. Supernatants from this centrifugation are referred to as "cytosol". […] (^3 H)-P4 binding to uterus PR was assayed on immature female rats according to Jordan et al (16).
Relative binding affinity (RBA) for partially purified CBG was determined by steroid competition for (^3 H)-B binding as described previously (14).

C[C@]12CC[C@H]3[C@@H](C[C@H]4OC[C@@]35CCC(=O)C=C45)[C@@H]1CC[C@@H]2C(=O)CO [21OH-6OP, 21-hydroxy-6,19-oxidoprogesterone]
displacement of (^3 H)-P4 from uterus receptors / cross-reaction with PR: unable to cross-react with uterus-PR or kidney-MR; also recorded: does not cross-react with progesterone receptor; also recorded: as weakly as the negative control 17β-estradiol; also recorded: no ability to interact with MR nor PR; also recorded: does not cross-react with PR
